ChEMBL document CHEMBL3826947, “New 4-Acyl-1-phenylaminocarbonyl-2-phenylpiperazine Derivatives as Potential Inhibitors of Adenovirus Infection. Synthesis, Biological Evaluation, and Structure-activity Relationships” (J Med Chem, 2016)
pIC50: −log10 of the molar value. The source made the active and inactive calls. The rule behind the calls is not given here.

How the values were obtained:
Human adenovirus 5 [1] = test: Antiviral activity against HAdV5 infected in 293beta5 cells assessed as inhibition of plaque formation at 10 uM after 7 days by GFP reporter gene assay relative to control; assay type: functional; conditions: Human mastadenovirus C, 293beta5, 168 h
Human adenovirus 5 [2] = test: Antiviral activity against HAdV5 infected in human A549 cells assessed as inhibition of viral entry at 50 uM preincubated for 45 mins followed by cell addition measured after 48 hrs by GFP reporter gene assay relative to control; assay type: functional; conditions: Human mastadenovirus C
[3] = Cytotoxicity against human A549 cells assessed as cell viability after 48 hrs by Alamar blue assay; assay type: cell-based
Human adenovirus 5 [4] = test: Antiviral activity against HAdV5 infected in 293beta5 cells assessed as inhibition of plaque formation after 7 days by GFP reporter gene assay; assay type: functional, organism-based; conditions: for pIC50: Human mastadenovirus C, 293beta5, 168 h
[5] = Antiviral activity against HAdV16 infected in 293beta5 cells assessed as inhibition of plaque formation after 7 days by GFP reporter gene assay; assay type: functional, cell-based, Human adenovirus 16; conditions: Human mastadenovirus B, 293beta5, 168 h
[6] = Selectivity index, ratio of CC50 for human A549 cells to IC50 for inhibition of HAdV5 plaque formation in 293beta5 cells; assay type: functional
[7] = Selectivity index, ratio of CC50 for human A549 cells to IC50 for inhibition of HAdV16 plaque formation in 293beta5 cells; assay type: functional
Human adenovirus 5 [8] = test: Antiviral activity against HAdV5 infected in human A549 cells assessed as inhibition of viral genome entry in nucleus by measuring nuclear associated viral DNA level at 50 uM after 45 mins by real time PCR method (reference value: 78.55 +/- 1.37%); assay type: functional; design: scale not given: the % may be the effect or the level left
Human adenovirus 5 [9] = test: Antiviral activity against HAdV5 infected in human A549 cells assessed as reduction in viral yield at 50 uM after 48 hrs by virus burst size assay relative to control; assay type: functional
[10] = Antiviral activity against HAdV16 infected in human A549 cells assessed as reduction in viral yield at 50 uM after 48 hrs by virus burst size assay relative to control; assay type: functional, Human adenovirus 16
Human adenovirus 5 [11] = test: Antiviral activity against HAdV5 infected in human A549 cells assessed as inhibition of viral DNA replication at 50 uM after 24 hrs by quantitative real time PCR method relative to control; assay type: functional; conditions: Human mastadenovirus C, A549, 24 h
A549 = test: Effect on GAPDH gene expression in human A549 cells at 50 uM after 24 hrs by quantitative real time PCR method; assay type: ADME, cell-based; conditions: a549, 24 h
Human adenovirus 5 [12] = test: Antiviral activity against HAdV5 assessed as inhibition of E1A mRNA transcription measured 6 hrs post infection; assay type: functional, organism-based
Human adenovirus 5 [13] = test: Antiviral activity against HAdV5 infected in human A549 cells assessed as inhibition of viral entry preincubated for 45 mins followed by cell addition measured after 48 hrs by GFP reporter gene assay; assay type: functional, organism-based; conditions: for pIC50: Human mastadenovirus C

| Structure (SMILES) | inhibition at 10 µM (Human adenovirus 5 [1]) | inhibition at 50 µM (Human adenovirus 5 [2]) | CC50 at 48 h [3] | inhibition (Human adenovirus 5 [4]) | pIC50 (Human adenovirus 5 [4]) | pIC50 [5] | Ratio CC50/IC50 [6] | Ratio CC50/IC50 [7] | Activity (Human adenovirus 5 [8]) | fold change (FC) (Human adenovirus 5 [9]) | fold change (FC) [10] | inhibition at 50 µM (Human adenovirus 5 [11]) | Activity (A549) | inhibition (Human adenovirus 5 [12]) | inhibition (Human adenovirus 5 [13]) | pIC50 (Human adenovirus 5 [13]) |
| --- | --- | --- | --- | --- | --- | --- | --- | --- | --- | --- | --- | --- | --- | --- | --- | --- |
| O=C(c1cc2ccccc2o1)N1CCN(C(=O)Nc2ccc(Cl)cc2)C(c2ccccc2)C1 (stereo unspecified) | 100% | 33% | 194 µM | Dose-dependent effect | 5.60 | 5.47 | 79 | 56.9 | 77.71% | 9.9 | 27.4 | 78.9% | Non-toxic | – | – | – |
| O=C(c1cc2ccccc2o1)N1CCN(C(=O)Nc2cc(C(F)(F)F)ccc2Cl)C(c2ccccc2)C1 (stereo unspecified) | 97% | 30% | 131 µM | Dose-dependent effect | 5.96 | 5.74 | 116.2 | 72.7 | 85% | 60.3 | 33.2 | – | – | inactive | – | – |
| N#Cc1ccc(NC(=O)N2CCN(C(=O)c3cc4ccccc4o3)CC2c2ccccc2)cc1 (stereo unspecified) | 98% | 63% | 200 µM | Dose-dependent effect | 5.33 | 5.41 | 42.7 | 51.2 | 81.05% | 16.9 | 60.9 | 88.5% | Non-toxic | – | – | – |
| O=C(c1cc2ccccc2o1)N1CCN(C(=O)Nc2ccccc2[N+](=O)[O-])C(c2ccccc2)C1 (stereo unspecified) | 100% | 38% | 132 µM | Dose-dependent effect | 5.60 | 5.64 | 53.3 | 57.3 | 79.26% | 34.5 | 46.5 | 73.1% | Non-toxic | – | – | – |
| O=C(c1cc2ccccc2o1)N1CCN(C(=O)Nc2ccc([N+](=O)[O-])cc2)C(c2ccccc2)C1 (stereo unspecified) | 100% | 84% | 194 µM | Dose-dependent effect | 5.68 | 5.46 | 93.5 | 55.4 | 77.99% | 35.7 | 34.6 | 80.9% | Non-toxic | – | Dose-dependent effect | 4.57 |
| CC(C)(C)OC(=O)N1CCN(C(=O)Nc2ccc([N+](=O)[O-])cc2)C(c2ccccc2)C1 (stereo unspecified) | 96% | 80% | 161 µM | Dose-dependent effect | 5.47 | 5.32 | 47.3 | 33.6 | 77.96% | 211.7 | 265.5 | 80.7% | Non-toxic | – | Dose-dependent effect | 4.49 |
